Source: patent publication US6838237B2, “Antigenically reactive regions of the hepatitis a virus polyprotein” (The United States of America as represented by the …, priority 1996, dated 2005)
“And” between values parts separate entries of the source, which are not always exact repeats. Identical values can stand only once.

Assays:
anti-HAV-negative sera = test: EIA for anti-HAV: synthetic peptides reacted with anti-HAV-negative sera; type: binding, human; details: experiment 1: sera 1:100, cutoff P/N 3.0
From the text: (§1) All anti-HAV-positive and anti-HAV-negative sera were randomly selected from a collection reposited at the Centers for Disease Control and Prevention, Atlanta, Ga. Serum specimens were collected from anti-HAV-positive patients with acute liver disease. Anti-HAV-negative serum specimens were collected from normal blood donors. All sera were initially tested by commercially available kit for the presence of anti-HAV activity (HAVAB and HAVAB-M, Abbott Laboratories, Abbott Park, Ill.)
(§2) Synthetic peptides (110 ml) at a concentration of 10 mg/ml in 0.1 M phosphate-buffered saline (PBS), pH 7.5, were adsorbed to microtiter wells (Immulon II, Dynatech Laboratories, Inc.) at room temperature for 12 h. Sera were diluted in PBS containing 0.1% Tween 20 and 10% normal goat serum (PBS-T) and 100 ml were added to each well, incubated for 60 min at 37E C, and washed with PBS containing Tween-20. […] Two different cutoffs were established for experiments 1 and 2. In experiment 1, the cutoff, expressed as a P/N ratio and equal to 3.0, was statistically established as the mean of negative controls plus at least 3.5 standard deviations (SD) above the mean, where P represents the optical density value at 493 nm (OD493) of anti-HAV-positive specimens and N represents the optical density value of negative controls. In experiment 2, a different cutoff was used to ensure statistical reliability and accurate interpretation of positive results. In this case, in addition to anti-HAV-negative sera, two irrelevant synthetic peptides were used as supplemental negative controls to determine the degree of nonspecific binding of anti-HAV sera to synthetic peptides. One cutoff, expressed as a P/N ratio and equal to 3.0, corresponded to the mean of negative serum controls plus at least 3.5 SD above the mean. A second cutoff was also expressed as a P/N ratio, where P represents the optical density value at 493 nm (OD493) for HAV peptides immunoreacting with anti-HAV-positive specimens and N represents the optical density value obtained with the irrelevant peptides. The second cutoff was equal 2.0 and corresponded to the mean of OD values obtained with the irrelevant peptides plus at least 3.5 SD above the mean. Synthetic peptides were considered immunoreactive with anti-HAV serum specimens only when both cutoffs were satisfied.

anti-HAV-positive sera = test: EIA for anti-HAV: synthetic peptides adsorbed to wells, reacted with anti-HAV-positive acute sera; type: binding, human; details: for Reactivity with acute sera (reactive/tested): experiment 1: sera 1:100, anti-human IgG-HRP, cutoff P/N 3.0; for Reactivity with acute sera (percent of sera reactive): experiment 1: sera 1:100, cutoff P/N 3.0; for P/N for acute sera (mean) / P/N for acute sera (range, in parentheses): OD493 positive/negative ratio of reactive sera
From the text: as §1, §2

Row | Sequence | Reactivity with negative sera (reactive/tested) (anti-HAV-negative sera) | immunoreactivity with anti-HAV-positive sera (in words) (anti-HAV-positive sera) | Reactivity with acute sera (reactive/tested) (anti-HAV-positive sera) | Reactivity with acute sera (percent of sera reactive) (anti-HAV-positive sera) [%] | P/N for acute sera (mean) (anti-HAV-positive sera; experiment 1) | P/N for acute sera (range, in parentheses) (anti-HAV-positive sera; experiment 1) | P/N for acute sera (individual values) (anti-HAV-positive sera; experiment 1, single sera listed with semicolon)
1 | HGVTKPKQVIKLDADPVESQ [YK-1374] | 0/27 | very broad and strong antigenic reactivity | 18/41 | 43.9 | 10.57 | (3.28-29.07) | –
2 | LSFSCYLSVTEQSEFYFPRA [YK-1307] | 0/51 | – | 6/48 | 12.5 | 5.88 | (4.17-7.64) | –
3 | TPVGLAVDTPWVEKESALSI [YK-1290] | 1/51 | – | 6/48 | 12.5 | 4.48 | (3.0-6.44) | –
4 | DSAVAEFFQSFPSGEPSNSK [YK-1369] | 1/27 | – | 24/41 | 58.5 | 21.71 | (3.8-42.62) | –
5 | VKPASFFKNPHNDMLNVNLA [YK-1362] | 0/41 | – | 6/41 | 14.6 | 7.82 | (3.4-18.05) | –
6 | PYKELRLEVGKQRLKYAQEE [YK-1316] | 2/51 | – | 20/48 | 41.7 | 8.71 | (3.5-17.8) | –
7 | SKTRAIDACPLDYSILCRMY [YK-1412] | 2/27 | – | 10/41 | 24.4 | 6.04 | (3.4-15.15) | –
8 | GGIKITHFTTWTSIPTLAAQ [YK-1236] | 0/48 | – | 22/46 | 47.8 | 4.68 | (3.1-9.33) | –
9 | LNMASLEEKGRHFSSPFIIA [YK-1357] | 1/51 | – | 4/48 | 8.3 | 4.49 | (4.06-4.85) | –
10 | NPSPKTVYVKEAIDRRLHFK [YK-1360] | 0/46 | – | 4/41 | 9.8 | 4.08 | (3.68-4.71) | –
11 | ITTIEDPVLAKKVPETFPEL [YK-1271] | 1/46 | – | 4/41 | 9.8 | 4.97 | (3.33-7.76) | –
12 | VDDPRSEEDKRFESHIECRK [YK-1314] | 1/51 | broad and strong antigenic reactivity | 26/48 | 54.2 | 14.68 | (3.53-89.96) | –
13 | GITLKQATTAPCAVMDITGV [YK-1252] | 0/46 | – | 2/41 | 4.9 | – | – | 3.67 and 17.95
14 | KINLADRMLGLSGVQEIKEQ [YK-1331] | 0/51 | – | 13/48 | 27.1 | 5.71 | (3.71-10.3) | –
15 | KNDGTTVDLTVDQAWRGKGE [YK-1389] | 0/27 | – | 3/41 | 7.3 | 10.33 | (5.53-18.26) | –
16 | LGMTATSADKNVPQLKPVSE [YK-1429] | 0/27 | – | 5/41 | 12.2 | 10.25 | (4.92-27.38) | –
17 | TTVSTEQNVPDPQVGITTMK [YK-1265] | 0/46 | – | 9/41 | 22.0 | 6.7 | (3.23-9.57) | –
18 | FPELKPGESRHTSDHMSIYK [YK-1274] | 1/48 | – | 9/46 | 19.6 | 5.31 | (3.0-8.47) | –
19 | CPKDELRPLEKVLESKTRAI [YK-1411] | 0/27 | – | 8/41 | 19.5 | 8.18 | (4.65-17.65) | –
20 | EVGSHQVEPLRTSVDKPGSK [YK-1210] | 0/48 | – | 15/46 | 32.6 | 7.31 | (3.93-20.47) | –
21 | FSQAKISLFYTEEHEIMKFS [YK-1319] | 2/51 | – | 13/48 | 27.1 | 3.87 | (3.14-5.01) | –
22 | DLEEIAANSKDFPNMSETDL [YK-1328] | 1/51 | – | 6/48 | 12.5 | 4.76 | (3.74-6.39) | –
23 | IKVIPVDPYFFQMTNTNPDQ [YK-1244] | 0/46 | – | 6/41 | 14.6 | 4.2 | (3.55-5.2) | –
24 | FPTKYHSGRLLFCFVPGNEL [YK-1250] | 0/48 | broadly and strongly immunoreactive | 17/46 | 37.0 | 5.68 | (3.4-7.92) | –
25 | KVNFPHGMLDLEEIAANSKD [YK-1327] | 1/51 | – | 15/48 | 31.3 | 6.16 | (3.28-9.76) | –
